Measurements reported in patent US20130253037A1, “AURORA A KINASE EFFECTORS” (PURDUE RESEARCH FOUNDATION, priority 2010, published 2013).
Changes are numbered by the printed parent chain. “Also recorded” adds a separate entry of the source.

What was measured:
[1] = target: Aurora B-as7 (L138V, L154G-AB) kinase (Homo sapiens, UniProt Q96GD4, L138V/L154G); assay: In vitro kinase assay with AB-as7; format: biochemical; settings: phosphodonor as labelled
wild-type Aurora A = target: T1, wild-type Aurora A (Mus musculus, UniProt P97477); assay: In vitro kinase assay with wild-type Aurora A and TPX2; format: biochemical, murine
T1 construct: 6-His; made in house; host or cells: Sf9 insect cells (baculovirus, Bac-to-Bac)
T1 sequence (P97477 1-395): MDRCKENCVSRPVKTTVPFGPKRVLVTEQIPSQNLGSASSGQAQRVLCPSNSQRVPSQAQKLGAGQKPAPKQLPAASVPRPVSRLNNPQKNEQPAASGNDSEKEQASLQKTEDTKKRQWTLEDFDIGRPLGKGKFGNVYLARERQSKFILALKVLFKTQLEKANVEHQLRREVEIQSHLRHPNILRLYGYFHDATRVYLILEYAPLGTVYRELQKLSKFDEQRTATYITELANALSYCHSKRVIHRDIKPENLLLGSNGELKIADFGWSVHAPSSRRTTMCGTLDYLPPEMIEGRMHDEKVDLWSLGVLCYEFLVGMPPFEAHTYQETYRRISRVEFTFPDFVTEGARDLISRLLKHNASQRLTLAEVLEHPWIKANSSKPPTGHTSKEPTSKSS
T1 sequence (Q9ULW0 1-747 partner): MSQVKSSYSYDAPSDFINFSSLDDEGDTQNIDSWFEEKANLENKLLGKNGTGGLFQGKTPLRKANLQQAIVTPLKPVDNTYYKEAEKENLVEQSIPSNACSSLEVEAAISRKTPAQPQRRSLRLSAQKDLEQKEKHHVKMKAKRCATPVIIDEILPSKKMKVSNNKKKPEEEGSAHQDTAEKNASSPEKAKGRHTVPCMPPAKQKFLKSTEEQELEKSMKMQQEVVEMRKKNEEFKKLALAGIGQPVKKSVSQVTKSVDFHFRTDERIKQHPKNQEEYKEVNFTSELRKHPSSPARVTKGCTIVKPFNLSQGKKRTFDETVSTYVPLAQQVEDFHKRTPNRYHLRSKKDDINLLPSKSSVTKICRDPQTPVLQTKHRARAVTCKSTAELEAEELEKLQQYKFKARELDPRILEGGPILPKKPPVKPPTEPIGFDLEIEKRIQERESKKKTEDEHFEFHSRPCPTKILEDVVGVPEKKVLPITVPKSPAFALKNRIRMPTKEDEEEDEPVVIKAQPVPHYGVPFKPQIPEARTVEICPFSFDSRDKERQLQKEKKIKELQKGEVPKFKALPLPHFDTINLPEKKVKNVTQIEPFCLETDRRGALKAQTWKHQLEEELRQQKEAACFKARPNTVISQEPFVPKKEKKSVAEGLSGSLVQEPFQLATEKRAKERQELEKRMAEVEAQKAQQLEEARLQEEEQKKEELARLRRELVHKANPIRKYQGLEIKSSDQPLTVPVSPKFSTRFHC
Method: (§1) For in vitro labeling, Aurora A/TPX2 complex (on beads) was pre-incubated with 10 μM cold ATP for 10 min to activate the kinase. The beads were washed twice with kinase buffer, and then subjected to kinase assay with 2-5 μg of recombinant protein (such as PHLDA) and 1 μCi of [γ-^32P] ATP. Reactions were terminated by adding SDS sample buffer, separated by SDS-PAGE gel, transferred to PVDF membrane and exposed to Biomax MS film. Aurora A kinase assays were conducted using 1 μCi of [γ-^32P] ATP and 3 μg of Aurora A substrate peptide in a final volume of 30 μl at 30° C. as reported before (Sun, et al, (2008a) Mol. Biol. Cell 19, 3052-3069).
(§2) IC50 values were determined by fitting the data to a sigmoidal dose response curve using GraphPad Prism 4.0 software. Km and Vmax values were derived from the assay described above using various concentrations of AA peptide substrate and ATP. Km and Vmax values were determined using GraphPad Prism 4.0 software.

[2] = target: T2, AA-as7 kinase (Aurora A LI85V, L201G) (Mus musculus, UniProt P97477, L185V/L201G); assay: In vitro kinase assay with AA-as7 and TPX2; format: biochemical, murine
T2 construct: the Aurora A mutant is the double mutant Aurora A (AA-as7); 6-His; made in house; host or cells: Sf9 insect cells (baculovirus, Bac-to-Bac)
T2 sequence (P97477 1-395 L185V/L201G): T1 sequence (P97477 1-395) with L185V, L201G
Method: as §1, §2

wild-type Aurora B = wild-type Aurora B (Homo sapiens, UniProt Q96GD4); assay: In vitro kinase assay with wild-type Aurora B; format: biochemical
Chain of wild-type Aurora B (Q96GD4 whole entry): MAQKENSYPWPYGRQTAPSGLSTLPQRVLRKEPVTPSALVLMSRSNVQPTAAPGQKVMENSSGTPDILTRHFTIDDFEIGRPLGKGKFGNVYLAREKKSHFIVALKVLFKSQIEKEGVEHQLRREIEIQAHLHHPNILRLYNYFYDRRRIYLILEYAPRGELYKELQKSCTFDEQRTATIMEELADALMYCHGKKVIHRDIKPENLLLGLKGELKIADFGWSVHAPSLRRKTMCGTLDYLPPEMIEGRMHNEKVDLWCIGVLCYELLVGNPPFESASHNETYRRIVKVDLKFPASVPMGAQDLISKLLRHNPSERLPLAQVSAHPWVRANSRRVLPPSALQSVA

MDA cells = assay: Western blot of LIMK2 and Aurora A levels after MLN8237, MDA cells; format: cell-based
Method: FIG. 11A-11F Aurora A and LIMK2 positive feedback loop is a common feature in several cancers. […] PC3 cells were transfected with scrambled shRNA (lane 1) or Aurora A-shRNA2 (lane 2) and Aurora A and LIMK2 levels analyzed after 30 h. […] FIG. 11C is a western blot showing that Aurora A ablation in HCT116 and PaCa2 cells depletes LIMK2. HCT116 and PaCa2 cells were transfected with scrambled shRNA (lanes 1 and 3) or Aurora A-shRNA2 (lanes 2 and 4) and Aurora A and LIMK2 levels analyzed. […] FIG. 11E is a western blot showing that LIMK2 acts as a pharmacodynamic biomarker for Aurora A kinase activity. Aurora A was inhibited using 0.5 μM MLN8237 in MDA cells and Aurora A, LIMK2 and actin levels analyzed. […] MDA cells were incubated with MLN8237 (0.5 μM and 1 μM) or the vehicle (DMSO). After 48 h, cells were analyzed using MTT assay. p*<0.05, when compared to the control.
(§3) AA-MDA and AA-as7 MDA cells were treated with either DMSO or 1-NM-PP1 (250 nM) for 12 h, followed by cell lysis. For MLN8237 experiment, MDA cells were treated with 1 μM MLN8237 for 12 h.
(§4) Cells were harvested and lysed in modified RIPA buffer, supplemented with protease inhibitors. Equal amounts of cell extracts were then used to conduct western blot.
Over a dozen Aurora A targeted drugs are in clinical trials. […] Aurora A was inhibited using MLN8237 and LIMK2 levels analyzed.

[3] = system: HA-tagged LIMK2 in MDA cells; assay: Gel shift / Western blot of HA-tagged LIMK2 and mutants in MDA cells after MLN8237; format: cell-based; settings: additional 12 h
Method: FIGS. 8A-8D. Aurora A phosphorylates LIMK2 at 5283, T494 and T505 which increases its protein stability. […] 6-His-tagged wild type, (S283A) LIMK2, (T494A) LIMK2 and (T505A) LIMK2 mutants were phosphorylated using Aurora A/TPX2 and [^32P] ATP for 15 min and the products were separate by electrophoresis. […] Nucleic acids sequence encoding HA-tagged (S283A) LIMK2, (T494A) LIMK2, and (T505A) LIMK2 were transfected in MDA cells. After 30 h, cells were incubated with 0.5 μM MLN8237 for additional 16 h. Gel shift assay was performed using 10% SDS PAGE. Protein levels were analyzed using HA and actin antibodies. FIG. 8C is a western blot showing Aurora A promotes LIMK2 stability by phosphorylating S283, T494 and T505. Nucleic acids sequences encoding HA-tagged wt LIMK2, (S283A, T494A) LIMK2 (2A) and (S283A, T494A, T505A) LIMK2 (3A) were transfected in MDA cells. After 30 h, protein levels were analyzed using Aurora A, HA and actin antibodies. […] Wild type, double (2A) and triple (3A) mutants of LIMK2 were transfected in MDA cells along with 6-His Ubiquitin and LIMK2 ubiquitination analyzed.
Aurora A inhibits LIMK2 degradation by directly phosphorylating it at Ser283, Thr494 and Thr505: Since Aurora A regulates LIMK2 by phosphorylation (FIG. 6A), we set to identify Aurora A-mediated phosphorylation sites on LIMK2. Aurora A preferentially phosphorylates R/K/N-R-X-S/T-B, where B denotes any hydrophobic residue except Pro (Ferrari et al. (2005) Biochem. J. 390, 293-302). […] S283A, T494A and T505A LIMK2 alleles were generated and their phosphorylation analyzed in vitro. Aurora A phosphorylates LIMK2 at all these sites (FIG. 8A). […]
To confirm these findings, HA-tagged LIMK2 double mutant (S283A, T494A) and HAtagged LIMK2 triple mutant (S283A, T494A, T505A) were generated and transfected in MDA cells. […] After 24 h, Aurora A was inhibited using MLN8237 for an additional 12 h, and LIMK2 levels analyzed using HA antibody.

[4] = system: wild-type Aurora A-expressing NIH3T3 cells; assay: Soft agar colony formation, wild-type Aurora A-NIH3T3 cells; format: cell-based; settings: 0.5 μM (identical conditions)
Method: (§5) Briefly equal volumes of nobel agar (1%, DNA grade) and 2×RPMI 1640 (with 20% FBS) were mixed at 40° C. to make 0.5% agar in six-well tissue culture plates (Corning) as a base agar. Cells (0.1 ml of 2.0×10^5/ml) were suspended in 3 mL of 2×RPMI 1640 (with 20% FBS) and 3 ml of 0.7% agar. 1.5 ml of this suspension was added to each well (as 0.35% top agar) with final concentration of 5,000 cells per well. Top agar was covered with 500 μl of culture media. Plates were incubated at 37° C. for 3 to 4 weeks. Fresh media was added every three days.
(§6) For 1-NM-PPI experiments, fresh media containing 1-NM-PP1 (100 nM) or DMSO were added to the cells every 3 days. Colony formation was observed by light phase-contrast microscope and visually after staining with 0.5 ml of 0.01% crystal violet in PBS for 45 min at room temperature. Experiments were repeated in quadruplicate, two independent times to ensure the reproducibility of the results.

AA-as7-NIH3T3 cells = assay: Soft agar colony formation, AA-as7-NIH3T3 cells; format: cell-based; settings: 0.5 μM
Method: as §5, §6

AA-as7-MDA cells = assay: Western blot of protein levels after 1-NM-PP1, AA-as7-MDA cells; format: cell-based; settings: for Aurora A levels: AA-as7-MDA cells treated with inhibitor
Method: Aurora A can regulate its substrates using either its kinase activity or scaffolding function. Therefore, to dissect the mechanism further, AA-MDA and AA-as7-MDA were treated with 1-NM-PP1 for 12 h and PHLDA1 expression analyzed.
as §3, §4
Aurora A-mediated phosphorylation of its substrates often promotes their degradation (e.g. p53, PHLDA1) or stabilization (ASAP1). Therefore, we investigated whether Aurora A exerts control over LIMK2 level. Aurora A was transiently depleted in MDA cells using two different shRNAs, causing concomitant decrease in LIMK2 level (FIG. 6A). Wild-type and mutant AA (AA-as7) were stably overexpressed in MDA cells (AA-MDA and AA-as7-MDA cells respectively), leading to considerable increase in LIMK2 levels (FIG. 6B), thereby confirming that Aurora A positively regulates LIMK2 levels. Aurora A can regulate its substrates using either its kinase activity or scaffolding function. Aurora A regulates p53 levels by phosphorylation, but regulates ASAP levels through the scaffolding function. Therefore, to dissect the mechanism by which Aurora A regulates LIMK2, AA-MDA and AA-as7-MDA cells were treated with 1-NM-PP 1 for 12 h and LIMK2 expression analyzed.

[5] = AA-as7, phosphodonor as labelled

Chain of Aurora B-as7 (L138V, L154G-AB) kinase (Q96GD4 whole entry L138V/L154G): as the sequence (Q96GD4 whole entry) above, with L138V, L154G counted along it

Nc1ncnc2c1ncn2[C@@H]1O[C@H](COP(=O)(O)OP(=O)(O)OP(=O)(O)O)[C@@H](O)[C@H]1O [ATP]
Kcat [1]: 2.75 s⁻¹
Km [1]: 30.4 µM
Vmax [1]: 3.30 × 10^4
Kcat (wild-type Aurora A; wild-type Aurora A): 31.3 s⁻¹
Km (wild-type Aurora A; wild-type Aurora A): 16.2 µM
Vmax (wild-type Aurora A; wild-type Aurora A): 4.24 × 10^5
Kcat [2, 5]: 54.2 s⁻¹
Km [2, 5]: 17.7 µM
Vmax [2, 5]: 7.31 × 10^5
Kcat (wild-type Aurora B): 4.27 s⁻¹
Km (wild-type Aurora B): 23 µM
Vmax (wild-type Aurora B): 5.12 × 10^4

COc1cc(Nc2ncc3c(n2)-c2ccc(Cl)cc2C(c2c(F)cccc2OC)=NC3)ccc1C(=O)O [MLN8237]
Aurora A levels (MDA cells): reduced
LIMK2 levels (MDA cells): depleted LIMK2 levels; also recorded: reduced
phospho-levels and protein levels of wt LIMK2 and (S283A, T494A) LIMK2 [3]: decreased
phosphorylation level (top band) and overall protein level of LIMK2 single mutants (S283A, T494A, T505A) [3]: decreased
protein and phospho-levels of LIMK2 triple mutant (S283A, T494A, T505A) [3]: remained unchanged

CC(C)(C)n1nc(Cc2cccc3ccccc23)c2c(N)ncnc21 [1-NM-PP1]
colony formation in soft agar [4]: robust colony formation
colony formation in soft agar (AA-as7-NIH3T3 cells): completely inhibited colony formation
inhibition of wild-type Aurora A (wild-type Aurora A; even at higher concentrations): does not inhibit
LIMK2 level (AA-as7-MDA cells; 250 nM, 12 h, AA-as7-MDA cells): significant decrease; also recorded: reduces LIMK2 levels
PHLDA1 level (AA-as7-MDA cells; 12 h, AA-as7-MDA cells): increased
Aurora A levels (AA-as7-MDA cells): reduces Aurora A levels significantly
Aurora A levels (AA-as7-MDA cells; listed as 1-NM-PP 1): decreased Aurora A levels; also recorded: lower Aurora A levels
IC50 ([2]; AA-as7 kinase): 1.7 nM
